Source: publication PMC10051811, “Plasma and Cerebrospinal Fluid Concentrations of Micafungin Administered at High Doses in Critically Ill Infants with Systemic Candidiasis: A Pooled Analysis of Two Studies” (Pharmaceuticals, 2023)
Where two headings read alike, the source gives them in different places. *1 amine or outer side, *2 acyl side, *3 side chain or, on linkers, in order; H or OH if unused. Where a SMILES comes first, the peptide text is derived from it. Bridges are numbered along the chain shown (N, C = ends). [ ]: non-standard residue; d: D form. The star is where a group is joined. hTyr(3S-OH,4S-OH,3'-OSO3H) = N[C@H](C(=O)O)[C@H](O)[C@@H](O)c1ccc(O)c(OS(=O)(=O)O)c1; Orn(4R-OH,5R-OH) = O=C([C@H](C[C@@H](O)[C@@H](O)N[*:3])N[*:1])[*:2]; Pro(3S-OH,4S-Me) = C[C@H]1CN[C@H](C(=O)O)[C@H]1O; X1 = CCCCCOc1ccc(-c2cc(-c3ccc(C(=O)*)cc3)no2)cc1; Gln(3R-OH) = NC(=O)C[C@@H](O)[C@H](N)C(=O)O; Hyp = O=C(O)[C@@H]1C[C@@H](O)CN1

Legend:
invasive candidiasis = assay: Microbiological and clinical success of micafungin therapy in infants with invasive candidiasis; format: in vivo, human; conditions: 8-15 mg/kg/day iv
Protocol: For this pooled analysis, we included data from a total of fifty-three neonates enrolled, aged ≤180 days (from the gestational age corrected at 37 weeks), affected with proven or suspected systemic candidiasis, whereby 3 of them had meningitis, who were treated for at least 14 days with micafungin (Mycamine®) at a dosage ranging from 8 to 15 mg/kg/day intravenously.
(§1) The dosage was formulated as a 2 mg/mL solution in 0.9% saline solution and administered intravenously over 1 h once daily. Infants who died within the first 48 h and those with acute or chronic hepatic diseases and/or known hypersensitivity to echinocandins were excluded. Each study with specific inclusion/exclusion criteria and definitions has been described in detail elsewhere.

rats = rats treated for 3 months or more, dose of 150 mg/day (eight times the highest recommended human dose); cited from earlier work
[1] = cited from earlier work
Description: This mechanism of action explains their characteristics of high specificity, even against resistant species of Candida. Micafungin is primarily eliminated via biliary excretion (90%), while the route of elimination via the kidney appears to be of minor importance in humans. Micafungin is bound to plasma proteins up to 99.5%. The binding to plasma proteins seems to be a ...

[2] = Micafungin plasma pharmacokinetics in neonates and young infants (HPLC); format: in vivo, human; conditions: for level at 1 h: read-out: Plasma values after 1 h; for level at 8 h: read-out: Plasma values after 8 h; for level at -1 h: read-out: Plasma values before infusion
Protocol: as §1
Micafungin plasma and CSF concentrations were measured 1 h before and 1, 2, and 8 h after the end of the infusion. Sampling overlapped with those required for the clinical monitoring of these critical children. Blood samples were collected via heel puncture, using 0.3 mL capillary microtubes with EDTA, between Days 3 and 10 of micafungin therapy. Five minutes prior to sampling, the heel was warmed with a hot compress (40 °C), and puncture was performed using a Gentleheel incision device (Cardinal Health, Dublin, OH, USA) at alternate sites per timepoint. Blood picked up was centrifuged at 3000× g, and the plasma residue was stored at 4 °C until analyzed within 6 h or frozen at −20 °C and analyzed within 7 days, as previously reported. Drug concentrations were measured via high-performance liquid chromatography (HPLC). An HPLC method with a diode array detector was validated to fine-tune the measurement on small amounts of plasma (0.3 mL whole blood).
Moreover, we assessed the optimal dosage to obtain systemic drug exposure equivalent to that considered to be effective in adult patients. Systemic drug exposure was assessed via the area under the curve for 24 h (AUC0–24), the plasma clearance (CL), and the half-life. Results were stratified according to chronological age.

[3] = ref 1 (Yanni et al.), cited from earlier work
Protocol: Yanni et al. observed an increased clearance of micafungin in infants and children: 40–80 mL/h/kg in premature infants and 20 mL/h/kg in children >4 months of age.

[4] = rabbit model of neonatal HCME; highest concentrations within meninges and choroid; ref 2 (Hope et al.); cited from earlier work
Description: In extremely low-birth-weight infants (<1 kg at birth) with invasive candidiasis, the probability of the central nervous system involvement during infection varies from 45% to 63% of cases. Micafungin concentration values in CSF are difficult to obtain if an external shunt has not been placed previously. Moreover, interpreting these values in vivo is not easy, considering that the fungal involvement of the central nervous system in neonatal age is typically hematogenous Candida meningoencephalitis (HCME). Hope et al. studied the pharmacokinetics and pharmacodynamics of micafungin in a r ...

[5] = Treatment-emergent adverse events (TEAEs) in treated infants; format: in vivo, human
Protocol: In order to evaluate drug safety, we analyzed treatment-emergent adverse effects (TEAEs). TEAEs were defined as an adverse effect experienced any time during the study’s drug administration to 72 h after the last dose of the study drug. A reasonable possibility that the event could have been caused by the study drug was assessed by the investigators; if the relationship was missing, it was considered to be drug-related.

[6] = human, iv, 7 mg/kg/day, Patient 1, dose 7 mg/kg/day iv, HPLC
[7] = human, iv, 8 mg/kg/day, Patient 3, dose 8 mg/kg/day iv, HPLC
[8] = human, iv, 10 mg/kg/day, Patient 1, dose 10 mg/kg/day iv, HPLC
[9] = human, iv, 10 mg/kg/day, Patient 2, dose 10 mg/kg/day iv, HPLC
[10] = human, iv, 15 mg/kg/day, Patient 2, dose 15 mg/kg/day iv, HPLC

## CCCCCOc1ccc(-c2cc(-c3ccc(C(=O)N[C@H]4C[C@@H](O)[C@@H](O)NC(=O)[C@@H]5[C@@H](O)[C@@H](C)CN5C(=O)[C@H]([C@H](O)CC(N)=O)NC(=O)[C@H]([C@H](O)[C@@H](O)c5ccc(O)c(OS(=O)(=O)O)c5)NC(=O)[C@@H]5C[C@@H](O)CN5C(=O)[C@H]([C@@H](C)O)NC4=O)cc3)no2)cc1 [micafungin] (X1-[Orn(4R-OH,5R-OH)]T[Hyp][hTyr(3S-OH,4S-OH,3'-OSO3H)][Gln(3R-OH)][Pro(3S-OH,4S-Me)]; lactam 1-C)
Invasive candidiasis; infants with systemic candidiasis
  Clinical recovery: all infants clinically recovered
Invasive candidiasis; subjects with invasive candidiasis, mean treatment duration 16.7 days, 95% CI = 51.2–97.9
  Microbiological success of the therapy: 83.3%
rats
  Hepatotoxicity finding in rats: development of hepatocellular tumors
[1]
  Bound to plasma proteins: up to 99.5%
[1]; humans
  Elimination via biliary excretion: 90%
[2]; age 0 to ≤28 days (n = 16), 8-15 mg/kg/day iv, mean ± SD, SD
  half-life: 13.5 ± 7.6 h
[2]; age >28 days ≤120 days (n = 23), 8-15 mg/kg/day iv, mean ± SD, SD
  Clearance/weight: 0.6 ± 0.167 mL/min/kg
[2]; [6]
  level at 1 h: 15600 ng/mL
  level at 8 h: 8900 ng/mL
  level at -1 h: 2900 ng/mL
[2]; [7]
  level at 1 h: 27000 ng/mL
  level at 8 h: 16800 ng/mL
  level at -1 h: 9120 ng/mL
[2]; [8]
  level at 1 h: 21700 ng/mL
  level at 8 h: 6580 ng/mL
  level at -1 h: 3200 ng/mL
[2]; [9]
  level at 1 h: 17400 ng/mL
  level at 8 h: 8900 ng/mL
  level at -1 h: 6700 ng/mL
[2]; [10]
  level at 1 h: 21900 ng/mL
  level at 8 h: 12200 ng/mL
  level at -1 h: 5800 ng/mL
[2]; human, iv, age 0 to ≤28 days (n = 16), 8-15 mg/kg/day iv over 1 h once daily, HPLC, mean ± SD, SD, read-out: Clearance (converted)
  clearance: 1.2 mL/min
[2]; human, iv, age 0 to ≤28 days (n = 16), 8-15 mg/kg/day iv, mean ± SD, SD, read-out: Clearance/weight (converted)
  clearance: 0.6 mL/min/kg
[2]; human, iv, age >28 days ≤120 days (n = 23), 8-15 mg/kg/day iv over 1 h once daily, HPLC, mean ± SD, SD, read-out: Clearance (converted)
  clearance: 1.45 mL/min
[2]; human, iv, age >28 days ≤120 days (n = 23), 8-15 mg/kg/day iv, mean ± SD, SD, read-out: Half-life (converted)
  half-life: 13.4 ± 4.3 h
[2]; human, iv, age >120 days (n = 13), 8-15 mg/kg/day iv over 1 h once daily, HPLC, mean ± SD, SD, read-out: Clearance (converted)
  clearance: 1.82 mL/min
[2]; human, iv, age >120 days (n = 13), 8-15 mg/kg/day iv, mean ± SD, SD, read-out: Clearance/weight (converted)
  clearance: 0.467 mL/min/kg
[2]; human, iv, age >120 days (n = 13), 8-15 mg/kg/day iv, mean ± SD, SD, read-out: Half-life (converted)
  half-life: 14.4 ± 4.2 h
[2]; human, iv, plasma AUC0–24, age 0 to ≤28 days (n = 16), 8-15 mg/kg/day iv, mean ± SD, SD
  AUC(0-t): 259 ± 92.7 µg·h/mL
[2]; human, iv, plasma AUC0–24, age >28 days ≤120 days (n = 23), 8-15 mg/kg/day iv, mean ± SD, SD
  AUC(0-t): 237 ± 63.9 µg·h/mL
[2]; human, iv, plasma AUC0–24, age >120 days (n = 13), 8-15 mg/kg/day iv, mean ± SD, SD
  AUC(0-t): 346 ± 145 µg·h/mL
[3]; children >4 months of age
  clearance: 0.333 mL/min/kg
[3]; premature infants
  clearance: 0.667 to 1.33 mL/min/kg
[4]
  Detection of micafungin within the CSF: not reliably detected
[5]; 53 infants, 8-15 mg/kg/day iv, thirty-four patients
  Patients with overall treatment-emergent adverse events (TEAEs): 64.2%
[5]; 53 infants, one patient, drug-related TEAE
  Patients with transient hypertransaminasaemia: 1.9%
[5]; 53 infants, three TEAEs
  Drug-related TEAEs (not serious): 5.7%
[5]; 53 infants, three cases
  TEAEs leading to death (septic shock, not drug-related): 5.7%
[5]; 53 infants, two patients, drug-related TEAE
  Patients with transiently increased levels of gamma-glutamyltransferase: 3.8%
[5]; high doses 8–15 mg/kg/day in neonates and infants
  Serious adverse events related to the therapy: no serious adverse events
